Source: patent US8247211B2, “Glycopeptide antibiotics” (American Cyanamid Company, priority 2001, dated 2012)
Values after ≈ are worked out from the molar mass of the structure shown. Values belong to the compound of their own block, whether it stands above or below them.

Assays:
Assay in all cases: In vitro antibacterial evaluation: minimum inhibitory concentration (MIC), broth dilution method
Format in all cases: cell-based
Settings in all cases: broth dilution, 18 hours at 35° C.
Enterococcus sp. = tested on: Enterococcus sp.
Outline: (§1)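 Susceptibility determined by NCCLS-recommended broth dilution (M7-A2), Muller-Hinton II […]. Concentration span 64-0.06 μg/mL, inoculum 5×10^5 CFU/mL. Isolates include strains resistant to methicillin, penicillin and/or vancomycin.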

Staphylococcus sp. = tested on: Staphylococcus sp.
Outline: as §1

Streptococcus sp. = tested on: Streptococcus sp.
Outline: as §1

Escherichia coli = tested on: Escherichia coli
[1] = Streptococcus pneumoniae (GC 1894)

MIC Enterococcus avium (GC 4558) (Enterococcus sp.; Enterococcus avium (GC 4558)): 64 µg/mL (≈ 58.7 µM) | MIC Enterococcus faecalis (ATCC 29212) (Enterococcus sp.; Enterococcus faecalis (ATCC 29212)): >64 µg/mL | MIC Enterococcus faecalis (GC 2242) (Enterococcus sp.; Enterococcus faecalis (GC 2242)): >64 µg/mL | MIC Enterococcus faecalis (GC 2691) (Enterococcus sp.; Enterococcus faecalis (GC 2691)): >64 µg/mL | MIC Enterococcus faecalis (GC 3059) (Enterococcus sp.; Enterococcus faecalis (GC 3059)): >64 µg/mL | MIC Enterococcus faecalis (GC 4552) (Enterococcus sp.; Enterococcus faecalis (GC 4552)): >64 µg/mL | MIC Enterococcus faecalis (GC 4553) (Enterococcus sp.; Enterococcus faecalis (GC 4553)): >64 µg/mL | MIC Enterococcus faecalis (GC 4554) (Enterococcus sp.; Enterococcus faecalis (GC 4554)): >64 µg/mL | MIC Enterococcus faecalis (GC 6189) (Enterococcus sp.; Enterococcus faecalis (GC 6189)): >64 µg/mL | MIC Enterococcus faecium (GC 2243) (Enterococcus sp.; Enterococcus faecium (GC 2243)): >64 µg/mL | MIC Enterococcus faecium (GC 4556) (Enterococcus sp.; Enterococcus faecium (GC 4556)): 64 µg/mL (≈ 58.7 µM) | MIC Enterococcus faecium (GC 4557) (Enterococcus sp.; Enterococcus faecium (GC 4557)): 64 µg/mL (≈ 58.7 µM) | MIC Enterococcus avium (GC 4558) (Enterococcus sp.): 64 µg/mL (≈ 58.7 µM) | MIC Enterococcus faecalis (ATCC 29212) (Enterococcus sp.): >64 µg/mL | MIC Enterococcus faecalis (GC 2242) (Enterococcus sp.): >64 µg/mL | MIC Enterococcus faecalis (GC 2691) (Enterococcus sp.): >64 µg/mL | MIC Enterococcus faecalis (GC 3059) (Enterococcus sp.): >64 µg/mL | MIC Enterococcus faecalis (GC 4552) (Enterococcus sp.): >64 µg/mL | MIC Enterococcus faecalis (GC 4553) (Enterococcus sp.): >64 µg/mL | MIC Enterococcus faecalis (GC 4554) (Enterococcus sp.): >64 µg/mL | MIC Enterococcus faecalis (GC 6189) (Enterococcus sp.): >64 µg/mL | MIC Enterococcus faecium (GC 2243) (Enterococcus sp.): >64 µg/mL | MIC Enterococcus faecium (GC 4556) (Enterococcus sp.): 64 µg/mL (≈ 58.7 µM) | MIC Enterococcus faecium (GC 4557) (Enterococcus sp.): 64 µg/mL (≈ 58.7 µM) | MIC Staphylococcus aureus-SMITH (GC 4543) (Staphylococcus sp.; strain SMITH GC 4543): >64 µg/mL | MIC Streptococcus agalactiae (GC 4564) (Streptococcus sp.; Streptococcus agalactiae (GC 4564)): >64 µg/mL | MIC Streptococcus pneumoniae (ATCC 6301) (Streptococcus sp.; Streptococcus pneumoniae (ATCC 6301)): >64 µg/mL | MIC Streptococcus pneumoniae (GC 1894) (Streptococcus sp.; [1]): 64 µg/mL (≈ 58.7 µM) | MIC Streptococcus pneumoniae (GC 4565) (Streptococcus sp.; Streptococcus pneumoniae (GC 4565)): >64 µg/mL | MIC Streptococcus pyogenes (GC 4563) (Streptococcus sp.; Streptococcus pyogenes (GC 4563)): >64 µg/mL | MIC Streptococcus agalactiae (GC 4564) (Streptococcus sp.): >64 µg/mL | MIC Streptococcus pneumoniae (ATCC 6301) (Streptococcus sp.): >64 µg/mL | MIC Streptococcus pneumoniae (GC 1894) (Streptococcus sp.): 64 µg/mL (≈ 58.7 µM) | MIC Streptococcus pneumoniae (GC 4565) (Streptococcus sp.): >64 µg/mL | MIC Streptococcus pyogenes (GC 4563) (Streptococcus sp.): >64 µg/mL | MIC Escherichia coli (ATCC 25922) (Escherichia coli): 64 µg/mL (≈ 58.7 µM) | MIC Escherichia coli (GC 4559) (Escherichia coli): 32 µg/mL (≈ 29.4 µM) | MIC Escherichia coli (GC 4560) (Escherichia coli): 16 µg/mL (≈ 14.7 µM)
SMILES: CC(c1ccccc1)C1NC(=O)CNC(=O)C(CO)NC(=O)C(C(O)C2CNC(=N)N2C2OC(CO)C(O)C(O)C2O)NC(=O)C(C(O)C2CNC(=N)N2)NC(=O)C(Cc2ccc(O)c(NC(=O)c3ccccc3)c2)NC1=O (stereo not drawn) [Example 17, Cyclo[glycyl-β-methylphenylalanyl-3-(benzamido)tyrosyl-3-(2-iminoimidazolidin-4-yl)seryl-3-(3-hexopyranosyl-2-iminoimidazolidin-4-yl)serylseryl]]

MIC Enterococcus faecium (GC 4557) (Enterococcus sp.; Enterococcus faecium (GC 4557)): 64 µg/mL (≈ 63.1 µM) | MIC Enterococcus faecium (GC 4557) (Enterococcus sp.): 64 µg/mL (≈ 63.1 µM) | MIC Streptococcus pneumoniae (GC 1894) (Streptococcus sp.; [1]): 64 µg/mL (≈ 63.1 µM) | MIC Streptococcus pneumoniae (GC 1894) (Streptococcus sp.): 64 µg/mL (≈ 63.1 µM) | MIC Escherichia coli (ATCC 25922) (Escherichia coli): 64 µg/mL (≈ 63.1 µM) | MIC Escherichia coli (GC 4559) (Escherichia coli): 32 µg/mL (≈ 31.6 µM) | MIC Escherichia coli (GC 4560) (Escherichia coli): 16 µg/mL (≈ 15.8 µM)
SMILES: CC(c1ccccc1)C1NC(=O)CNC(=O)C(CO)NC(=O)C(C(O)C2CNC(=N)N2C2OC(CO)C(O)C(O)C2O)NC(=O)C(C(O)C2CNC(=N)N2)NC(=O)C(Cc2ccc(O)c(NC=O)c2)NC1=O (stereo not drawn) [Example 18, Cyclo[glycyl-β-methylphenylalanyl-3-formamidotyrosyl-3-(2-iminoimidazolidin-4-yl)seryl-3-(3-hexopyranosyl-2-iminoimidazolidin-4-yl)serylseryl]]

MIC Coagulase Negative Staphylococcus (GC 4547) (Staphylococcus sp.): 64 µg/mL (≈ 51.2 µM) | MIC Coagulase Negative Staphylococcus (GC 4549) (Staphylococcus sp.): 64 µg/mL (≈ 51.2 µM) | MIC Coagulase Negative Staphylococcus (GC 6257) (Staphylococcus sp.): 64 µg/mL (≈ 51.2 µM) | MIC Escherichia coli (GC 4560) (Escherichia coli): 64 µg/mL (≈ 51.2 µM)
SMILES: CC(c1ccccc1)C1NC(=O)CNC(=O)C(CO)NC(=O)C(C(O)C2CNC(=N)N2C2OC(CO)C(O)C(O)C2O)NC(=O)C(C(O)C2CNC(=N)N2)NC(=O)C(Cc2ccc3oc(-c4ccccc4OC4OC(CO)C(O)C(O)C4O)nc3c2)NC1=O (centres unmarked) [Example 36]
MIC Staphylococcus haemolyticus (GC 4546) (Staphylococcus sp.): 64 µg/mL (≈ 51.2 µM)
